ChEMBL document CHEMBL1158242, “New bioactive cerebrosides from Arisaema amurense” (1996)

Legend:
[1] = tested on: Hepatocyte; test: Antihepatotoxic activity against CCl4-induced toxicity in rat hepatocytes assessed as effect on SDH activity at 5 uM by Geralch method relative to control; assay type: functional
[2] = tested on: Hepatocyte; test: Antihepatotoxic activity against CCl4-induced toxicity in rat hepatocytes assessed as effect on GPT activity at 5 uM by Reitman-Fankel method relative to control; assay type: functional

Row | Structure (SMILES) | Activity [1] | Activity [2]
1 | CCCCCCCCC/C=C\CC/C=C/[C@@H](O)[C@H](CO[C@@H]1O[C@H](CO)[C@@H](O)[C@H](O)[C@H]1O)NC(=O)[C@H](O)CCCCCCCCCCCCCCCCCC | 51.2% | 53.8%
2 | CCCCCCCCC/C=C/CC/C=C/[C@@H](O)[C@H](CO[C@@H]1O[C@H](CO)[C@@H](O)[C@H](O)[C@H]1O)NC(=O)C(O)CCCCCCCCCCCCCCCC (some centres not stated) | 46.1% | 51.6%
3 | CCCCCCCCC/C=C\CC/C=C/[C@@H](O)[C@H](CO[C@@H]1O[C@H](CO)[C@@H](O)[C@H](O)[C@H]1O)NC(=O)C(O)CCCCCCCCCCCCCCCC (some centres not stated) | 36.9% | 35.1%
4 | CCCCCCCCC/C=C\CC/C=C/[C@@H](O)[C@H](CO[C@@H]1O[C@H](CO)[C@@H](O)[C@H](O)[C@H]1O)NC(=O)C(O)CCCCCCCCCCCCCC (some centres not stated) | 71.2% | 54.4%
5 | CCCCCCCCC/C=C/CC/C=C/[C@@H](O)[C@H](CO[C@@H]1O[C@H](CO)[C@@H](O)[C@H](O)[C@H]1O)NC(=O)C(O)CCCCCCCCCCCCCCCCCC (some centres not stated) | 7.2% | 22.5%
6 | COc1cc(C2Oc3cc([C@H]4Oc5cc(O)cc(O)c5C(=O)[C@@H]4O)ccc3OC2CO)ccc1O (some centres not stated) [SILIBININ] | 42.3% | 48.7%
